The record followed here is PMC6757289, “Design and Characterization of SGK3-PROTAC1, an Isoform Specific SGK3 Kinase PROTAC Degrader” (ACS Chemical Biology, 2019).

pIC50: −log10 of the molar value. Some results are limits rather than exact numbers.

Assay in all cases: IC50 determination, biochemical kinase assay
The target in one assay is T1, SGK1 (Homo sapiens, UniProt O00141, S422D).
T1 sequence (O00141 60-431 S422D limits assumed): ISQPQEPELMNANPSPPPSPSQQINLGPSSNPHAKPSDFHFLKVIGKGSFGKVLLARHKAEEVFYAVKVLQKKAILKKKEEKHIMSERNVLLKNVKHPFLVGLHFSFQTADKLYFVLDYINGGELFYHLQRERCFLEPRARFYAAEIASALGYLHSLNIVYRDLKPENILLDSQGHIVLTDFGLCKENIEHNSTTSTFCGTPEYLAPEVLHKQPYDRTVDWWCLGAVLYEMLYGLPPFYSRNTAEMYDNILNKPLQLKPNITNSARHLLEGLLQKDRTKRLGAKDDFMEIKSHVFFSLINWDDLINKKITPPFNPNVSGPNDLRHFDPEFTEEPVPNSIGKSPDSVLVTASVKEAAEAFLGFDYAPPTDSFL
The settings on record: not in the presence of VHL.

The next assay concerns the target S6K1 (Homo sapiens, UniProt P23443, T412E). To be noted: for pIC50: not in the presence of VHL. On the procedure:
(§1) IC50 determination was performed at the MRC PPU International Centre for Protein Kinase Profiling, according to the protocol previously described[47],[48]

A further assay addresses T2, SGK3 (Homo sapiens, UniProt Q96BR1).
T2 sequence (Q96BR1 1-496): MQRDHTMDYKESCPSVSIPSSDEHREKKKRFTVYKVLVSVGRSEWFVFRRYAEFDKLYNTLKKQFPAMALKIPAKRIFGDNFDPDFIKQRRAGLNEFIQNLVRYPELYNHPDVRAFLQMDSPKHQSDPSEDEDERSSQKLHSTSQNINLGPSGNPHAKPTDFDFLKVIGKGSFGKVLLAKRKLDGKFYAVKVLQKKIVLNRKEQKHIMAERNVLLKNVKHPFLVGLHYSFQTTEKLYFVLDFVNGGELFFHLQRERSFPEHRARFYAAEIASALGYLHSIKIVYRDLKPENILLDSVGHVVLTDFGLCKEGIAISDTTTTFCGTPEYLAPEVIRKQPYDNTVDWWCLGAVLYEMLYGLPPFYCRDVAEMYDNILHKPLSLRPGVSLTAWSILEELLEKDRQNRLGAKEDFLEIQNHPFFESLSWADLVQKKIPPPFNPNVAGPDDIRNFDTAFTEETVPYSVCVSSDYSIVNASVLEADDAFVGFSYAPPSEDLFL
To be noted: not in the presence of VHL. On the procedure:
as §1

Chain of S6K1 (P23443 1-421 T412E limits assumed): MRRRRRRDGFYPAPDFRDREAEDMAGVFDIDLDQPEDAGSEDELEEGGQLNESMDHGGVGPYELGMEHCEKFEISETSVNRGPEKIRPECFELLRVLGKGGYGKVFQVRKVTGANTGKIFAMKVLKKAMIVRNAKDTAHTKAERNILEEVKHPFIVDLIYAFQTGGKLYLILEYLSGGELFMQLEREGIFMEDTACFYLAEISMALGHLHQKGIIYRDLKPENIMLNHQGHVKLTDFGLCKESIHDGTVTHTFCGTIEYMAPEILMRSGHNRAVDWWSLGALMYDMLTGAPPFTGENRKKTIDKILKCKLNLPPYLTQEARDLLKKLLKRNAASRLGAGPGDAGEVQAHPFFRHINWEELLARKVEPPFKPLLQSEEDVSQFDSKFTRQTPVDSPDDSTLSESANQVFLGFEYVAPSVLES

In general, pIC50 refers to −log10 of the IC50, conventionally taken in molar units. In the case of `COc1ccc(Cl)c(S(=O)(=O)Nc2ccc(-c3nc(OC[C@H]4CNCCO4)c4c(C)n[nH]c4n3)cc2)c1` [290-R, reference compound], the figures for the pIC50 at SGK1, on S6K1 and at SGK3 were 7.72, 8.00 and 7.46, respectively.

For the compound `Cc1ccc(F)c(S(=O)(=O)Nc2ccc(-c3nc(OC[C@H]4CNCCO4)c4cn[nH]c4n3)cc2)c1` [308-R, reference compound], the pIC50 at S6K1 is 9.00; at SGK3, 8.30.

For `Cc1ccc(F)c(S(=O)(=O)Nc2ccc(-c3nc(OC[C@H]4CN(CCOCCOCCOCC(=O)N[C@H](C(=O)N5C[C@H](O)C[C@H]5C(=O)NCc5ccc(-c6scnc6C)cc5)C(C)(C)C)CCO4)c4cn[nH]c4n3)cc2)c1` [DAT1], the pIC50 on SGK1 was 5.80; on S6K1 it was 6.80; at SGK3, 6.36.

In the case of `Cc1ccc(F)c(S(=O)(=O)Nc2ccc(-c3nc(OC[C@H]4CN(CCOCCOCC(=O)N[C@H](C(=O)N5C[C@H](O)C[C@H]5C(=O)NCc5ccc(-c6scnc6C)cc5)C(C)(C)C)CCO4)c4cn[nH]c4n3)cc2)c1` [DAT5], the pIC50 on SGK1, at S6K1 and at SGK3 was less than 5.00 throughout.

Regarding `Cc1ccc(F)c(S(=O)(=O)Nc2ccc(-c3nc(OC[C@H]4CN(CCOCCOCCOCCOCC(=O)N[C@H](C(=O)N5C[C@H](O)C[C@H]5C(=O)NCc5ccc(-c6scnc6C)cc5)C(C)(C)C)CCO4)c4cn[nH]c4n3)cc2)c1` [DAT6], the negative-log IC50 (pIC50) at SGK1, on S6K1 and on SGK3 was less than 5.00 throughout.

For the compound `Cc1ccc(F)c(S(=O)(=O)Nc2ccc(-c3nc(OC[C@H]4CN(CCOCCOCCOCCOCCOCC(=O)N[C@H](C(=O)N5C[C@H](O)C[C@H]5C(=O)NCc5ccc(-c6scnc6C)cc5)C(C)(C)C)CCO4)c4cn[nH]c4n3)cc2)c1` [DAT7], the pIC50 at SGK1, at S6K1 and on SGK3 was less than 5.00 each time.

Consider `Cc1ccc(F)c(S(=O)(=O)Nc2ccc(-c3nc(OC[C@H]4CN(CCCCCCOCCCCCCOCC(=O)N[C@H](C(=O)N5C[C@H](O)C[C@H]5C(=O)NCc5ccc(-c6scnc6C)cc5)C(C)(C)C)CCO4)c4cn[nH]c4n3)cc2)c1` [DAT10], for which the pIC50 at SGK1, on S6K1 and at SGK3 was less than 5.00 each time.

Turning to `COc1ccc(Cl)c(S(=O)(=O)Nc2ccc(-c3nc(OC[C@H]4CN(CCCCCCOCCOCCOCCOCC(=O)N[C@H](C(=O)N5C[C@H](O)C[C@H]5C(=O)NCc5ccc(-c6scnc6C)cc5)C(C)(C)C)CCO4)c4c(C)n[nH]c4n3)cc2)c1` [DAT11], the pIC50 at SGK1 was 5.87; on S6K1, 5.74; at SGK3, 6.14.

Turning to `Cc1ccc(F)c(S(=O)(=O)Nc2ccc(-c3nc(OC[C@H]4CN(CCCCCCOCCOCCOCC(=O)N[C@H](C(=O)N5C[C@H](O)C[C@H]5C(=O)NCc5ccc(-c6scnc6C)cc5)C(C)(C)C)CCO4)c4cn[nH]c4n3)cc2)c1` [SGK3-PROTAC1], the values for the negative logarithm of the IC50 (pIC50) at SGK1 and at S6K1 were 6.66 and 5.74, respectively. Moreover, the “increase of IC50 against S6K1 relative to DAT1” value at S6K1 (0.16 μM to 1.8 μM) was “approximately 10 fold”.

As to `Cc1ccc(F)c(S(=O)(=O)Nc2ccc(-c3nc(OC[C@H]4CN(CCCCCCOCCOCCOCC(=O)N[C@H](C(=O)N5C[C@@H](O)C[C@H]5C(=O)NCc5ccc(-c6scnc6C)cc5)C(C)(C)C)CCO4)c4cn[nH]c4n3)cc2)c1` [cisSGK3-PROTAC1], the results for the pIC50 at SGK1 and on S6K1 were 5.85 and 5.77, respectively.
